The values below come from PMC10537738, “Antiviral Effect of 5′-Arylchalcogeno-3-aminothymidine Derivatives in SARS-CoV-2 Infection” (Molecules, 2023).

SMILES strings stand for the structures. Like-named read-outs stand apart in the source and are kept apart here. Bounds are passed on as bounds.

The subject of data set [1] is SARS-CoV-2. Put plainly: microbe, parasite or virus in culture. The data set is classed as cell-based.
The nature of data set [2]: in vitro. The following applies: African green monkey.
Data set [3] can be described thus: in vitro. Conditions: human.
In data set [4] the test system is SARS-CoV-2. As to the kind of experiment: SARS-CoV-2 replication inhibition in Vero E6 cells (PFU titration). Conditions: for EC50: read-out: EC50 24 h, Vero E6, MOI 0.01, 24 hpi; for inhibition of SARS-CoV-2 replication: Vero E6, 24 hpi, 10 µM.
The nature of data set [5]: Cytotoxicity assay, methylene blue staining, Calu-3. Conditions: human.
Data set [6] deals with SARS-CoV-2. More on the design: method as in PMID 32759267. The following applies: infected Vero E6 cells; cited from earlier work.
For data set [7], the system named is SARS-CoV-2. More on the design: method as in PMID 33880524. Conditions: Calu-3-based assays, 48 hpi; cited from earlier work.
For data set [8], the system named is SARS-CoV-2. Conditions: cell model not given; read-out: estimated EC50; cited from earlier work.
Setting [9] is: Severe acute respiratory syndrome coronavirus 2, Calu-3, 24 h, read-out: EC50 24 h, Calu-3, MOI 0.01, 24 hpi.
Setting [10] is: Severe acute respiratory syndrome coronavirus 2, Calu-3, 48 h, read-out: EC50 48 h, Calu-3, MOI 0.01, 48 hpi.
The mark [11] stands for this setting: read-out: EC50 48 h, Calu-3, MOI 0.01, 48 hpi.
[12] abbreviates: Severe acute respiratory syndrome coronavirus 2, 24 h, Calu-3, MOI 0.01, 24 hpi, read-out: EC50 24 h.
[13] abbreviates: Severe acute respiratory syndrome coronavirus 2, 48 h, Calu-3, MOI 0.01, 48 hpi, read-out: EC50 48 h.
Where [14] appears, read: Severe acute respiratory syndrome coronavirus 2, Calu-3, read-out: inhibition of coronavirus replication.
[15] abbreviates: read-out: EC50 24 h, Calu-3, MOI 0.01, 24 hpi.

On to `COc1ccc([Se]C[C@H]2O[C@@H](n3cc(C)c(=O)[nH]c3=O)C[C@@H]2N)cc1` [R3c], for which the EC50 in the data set on SARS-CoV-2 [1] (setting [9]) was 5.17 ± 0.81 µM; with SARS-CoV-2 [1] (setting [10]), 3.43 ± 1.52 µM; in the data set on SARS-CoV-2 [4] it was 3.31 ± 0.92 µM. In addition, the CC50 in the data set “in vitro [2]” and in the data set “in vitro [3]” was > 200 µM each time.
On to `Cc1cn([C@H]2C[C@H](N)[C@@H](C[Se]c3ccc(Cl)cc3)O2)c(=O)[nH]c1=O` [R3d], for which the EC50 in the data set on SARS-CoV-2 [1] (setting [9]) was 8.29 ± 0.82 µM; in the data set with SARS-CoV-2 [1] (setting [10]), ≤ 2.57 µM; in the data set on SARS-CoV-2 [1] (setting [11]) it was 2.17 ± 0.64 µM; in the data set on SARS-CoV-2 [4], 1.23 ± 0.54 µM. Besides, the values for the CC50 in “in vitro [2]” and in “in vitro [3]” were 98.8 ± 11.7 µM and > 200 µM, respectively.
With `Cc1ccc([Se]C[C@H]2O[C@@H](n3cc(C)c(=O)[nH]c3=O)C[C@@H]2N)cc1` [R3b], the figures for the EC50 in the data set with SARS-CoV-2 [1] (setting [9]), with SARS-CoV-2 [1] (setting [10]) and in the data set on SARS-CoV-2 [4] were 3.82 ± 1.42 µM, 1.33 ± 0.35 µM and 2.97 ± 0.62 µM, respectively. For the same compound, the inhibition at 10 µM in the data set with SARS-CoV-2 [1] (Severe acute respiratory syndrome coronavirus 2, Calu-3, read-out: inhibition of viral replication) was found to be 95%. The CC50 in the data set “in vitro [2]” and in “in vitro [3]” was > 200 µM each time.
As for `COc1ccc([Te]C[C@H]2O[C@@H](n3cc(C)c(=O)[nH]c3=O)C[C@@H]2N)cc1` [R3o], the EC50 with SARS-CoV-2 [1] (setting [9]) was 6.18 ± 2.05 µM; in the data set on SARS-CoV-2 [1] (setting [10]), ≤ 2.57 µM; with SARS-CoV-2 [1] (setting [11]), 1.99 ± 1.73 µM; with SARS-CoV-2 [4], 4.95 ± 0.64 µM. Moreover, the CC50 in the data set “in vitro [2]” stood at 39.9 ± 4.4 µM; in the data set “in vitro [3]”, 30.7 ± 5.6 µM.
Consider `Cc1cn([C@H]2C[C@H](N)[C@@H](CSc3ccccc3)O2)c(=O)[nH]c1=O` [R3r], for which the EC50 in the data set on SARS-CoV-2 [1] (setting [12]) and in the data set on SARS-CoV-2 [1] (setting [13]) was > 10 µM throughout. Moreover, in the data set “in vitro [3]”, the CC50 at 72 h was > 200 µM.
As to `Cc1cn([C@H]2C[C@H](N=[N+]=[N-])[C@@H](CO)O2)c(=O)[nH]c1=O` [AZT, azidothymidine, reference compound], the EC50 in the data set with SARS-CoV-2 [1] (setting [12]) and with SARS-CoV-2 [1] (setting [13]) was > 10 µM throughout. In [5], the CC50 at 72 h was > 200 µM.
Turning to `Cc1cn([C@H]2C[C@H](N)[C@@H](C[Se]c3cccc4ccccc34)O2)c(=O)[nH]c1=O` [R3e], the EC50 is ≤ 2 µM in the data set with SARS-CoV-2 [1] (setting [9]); ≤ 2.57 µM in the data set on SARS-CoV-2 [1] (setting [10]); 1.92 ± 0.43 µM in the data set with SARS-CoV-2 [1] (setting [15]); 2.31 ± 0.54 µM in the data set with SARS-CoV-2 [1] (setting [11]); 1.99 ± 0.42 µM in the data set on SARS-CoV-2 [4]. Moreover, the inhibition at 10 µM with SARS-CoV-2 [1] (setting [14]) was > 95%. For the same compound, the CC50 in “in vitro [2]” is > 200 µM; in “in vitro [3]”, 156 ± 5 µM. The “inhibition of SARS-CoV-2 replication” value in the data set with SARS-CoV-2 [4] was “approximately 95%”.
Take `COC(=O)N[C@H](C(=O)N[C@@H](Cc1ccccc1)[C@@H](O)CN(Cc1ccc(-c2ccccn2)cc1)NC(=O)[C@@H](NC(=O)OC)C(C)(C)C)C(C)(C)C` [atazanavir]: in the data set on SARS-CoV-2 [6], the EC50 was 2 ± 0.12 µM.
With `Cc1ccc([Te]C[C@H]2O[C@@H](n3cc(C)c(=O)[nH]c3=O)C[C@@H]2N)cc1` [R3n], the EC50 was ≤ 2 µM in the data set with SARS-CoV-2 [1] (setting [9]); ≤ 2.57 µM in the data set with SARS-CoV-2 [1] (setting [10]); 1.18 ± 0.61 µM in the data set on SARS-CoV-2 [1] (setting [15]); 2.57 ± 0.62 µM in the data set on SARS-CoV-2 [1] (setting [11]); 6.1 ± 0.41 µM in the data set with SARS-CoV-2 [4]. Further, in the data set with SARS-CoV-2 [1] (setting [14]), the inhibition at 10 µM was > 95%. For the same compound, the figures for the CC50 in “in vitro [2]” and in “in vitro [3]” were 60.1 ± 4.4 µM and 68.7 ± 11.4 µM, respectively.
`COC(=O)N[C@H](C(=O)N1CCC[C@H]1c1nc(-c2ccc(-c3ccc(-c4c[nH]c([C@@H]5CCCN5C(=O)[C@@H](NC(=O)OC)C(C)C)n4)cc3)cc2)c[nH]1)C(C)C` [daclatasvir]: in the data set on SARS-CoV-2 [7], the concentration giving a half-maximal response (EC50) was 1.1 ± 0.3 µM.
Consider `CC(C)C(=O)OC[C@H]1O[C@@H](n2ccc(NO)nc2=O)[C@H](O)[C@@H]1O` [molnupiravir], for which, in the data set with SARS-CoV-2 [8], the EC50 was 1.97 µM.
For `Cc1cn([C@H]2C[C@H](N)[C@@H](C[Te]c3ccc(Cl)cc3)O2)c(=O)[nH]c1=O` [R3p], the EC50 with SARS-CoV-2 [1] (setting [9]) stood at 4.33 ± 1.03 µM; with SARS-CoV-2 [1] (setting [10]), 12.7 ± 1.74 µM; in the data set with SARS-CoV-2 [4], 4.89 ± 0.52 µM. For the same compound, the CC50 stood at 49.7 ± 7.5 µM in “in vitro [2]” and 35.2 ± 7.5 µM in “in vitro [3]”. In addition, the “inhibition of SARS-CoV-2 replication” value in the data set on SARS-CoV-2 [4] is reported as “approximately 95%”.
`Cc1cn([C@H]2C[C@H](N)[C@@H](C[Se]c3ccccc3)O2)c(=O)[nH]c1=O` [R3a]: the EC50 in the data set with SARS-CoV-2 [1] (setting [9]) is 6.37 ± 0.58 µM; in the data set with SARS-CoV-2 [1] (setting [10]) it was 3.67 ± 1.57 µM; in the data set with SARS-CoV-2 [4], 2.25 ± 0.43 µM. The CC50 in “in vitro [2]” and in the data set “in vitro [3]” was > 200 µM each time.
As for `Cc1cn([C@H]2C[C@H](N)[C@@H](C[Te]c3ccccc3)O2)c(=O)[nH]c1=O` [R3f], the EC50 in the data set on SARS-CoV-2 [1] (setting [9]) is ≤ 2 µM; in the data set with SARS-CoV-2 [1] (setting [10]), 4.86 ± 1.31 µM; in the data set with SARS-CoV-2 [4], 2.67 ± 0.63 µM. Besides, the inhibition at 10 µM with SARS-CoV-2 [1] (setting [14]) is > 95%. In addition, the CC50 in the data set “in vitro [2]” worked out at 52.1 ± 12.7 µM; in “in vitro [3]”, 44.6 ± 8.3 µM. Besides, in the data set on SARS-CoV-2 [4], the “inhibition of SARS-CoV-2 replication” value is “approximately 95%”.
For the compound `Cc1cn([C@H]2C[C@H](N)[C@@H](C[Te]c3cccc4ccccc34)O2)c(=O)[nH]c1=O` [R3q], the melting point fell in the range of 134.1 to 135.6 °C. The EC50 in the data set on SARS-CoV-2 [1] (setting [9]) was ≤ 2 µM. Besides, the inhibition at 10 µM in the data set on SARS-CoV-2 [1] (setting [14]) is > 95%. For the same compound, in the data set with SARS-CoV-2 [1] (setting [15]), the EC50 was 2.03 ± 0.32 µM. The CC50 in “in vitro [2]” stood at 33.6 ± 6.9 µM. The compound further displayed a CC50 in “in vitro [3]” of 34.3 ± 10.2 µM. The EC50 in the data set with SARS-CoV-2 [4] was found to be 4.21 ± 0.43 µM.

The EC50 is the concentration at which the effect is half-maximal. For orientation: inhibition means how much of the control response was suppressed. The melting point is the temperature of the solid-liquid transition.
